Measured values taken from patent US20260365696A1, “INHIBITORS OF PTP1B / NCK1 INTERACTION AND METHODS OF MAKING AND USING SAME” (Radella Pharmaceuticals LLC, priority 2023, published 2026).

Tests used:
[1] = biological target: T1, interaction between PTP1B and the SH3-2 domain of NCK1 (Homo sapiens, UniProt P16333); assay: GST pull-down / co-immunoprecipitation screen for disruption of the PTP1B / NCK1 SH3-2 interaction; format: binding; conditions: peptide 1 mM; for disruption of the interaction between PTP1B and the SH3-2 domain of NCK1: GST-SH3-2 and FLAG-PTP1B
T1 construct: FLAG-PTP1B from HEK293 lysate
Method: FIG. 4A depicts an immunoblot showing that certain peptides prevent co-immunoprecipitation of FLAG-PTP1B and GST-tagged SH3-2 domain of NCK1 (“SH3”). GST was fused to full-length NCK1 (“Nck1”), all SH3 domains of NCK1 (“SH3”), the NCK1 SH2 domain (“SH2”), the NCK1 SH3-1 domain (“SH3 1”), the NCK1 SH3-2 domain (“SH3 2”), and the NCK1 SH3-3 domain (“SH3 3”). GST alone was used as a negative control (“GST”). FLAG-PTP1B was incubated with the indicated bead-bound GST-fusion protein, and FLAG-PTP1B was detected in the IP eluate by western blotting. The outlined region in column “SH3-2” identifies the PTP1B band. For GST-SH3-2 and FLAG-PTP1B, the mixture was further incubated with one of peptides A through K, (1 mM). FIG. 4B depicts an input control for the immunoblot. FIG. 4C depicts a Ponceau stain for the immunoblot, which was used to measure total protein.
Construction and Purification of GST constructs: Human NCK1 (NM_006153) human cDNA was obtained (Origene, MD, USA). GST fusion constructs (GST-only control, GST full length NCK1, GST all SH3 domains of NCK1, GST SH2 domain of NCK1, GST SH3-1, GST SH3-2 and GST SH3-3) were amplified, double digested (EcoRI and XhoI, New England Biolabs), ligated in to pGEX-6P-2 vector (#M2200S, New England Biolabs; #GE28-9546-50, Merck), transformed in to DH5α E. coli cells (#C2987H, NEB) and purified using a plasmid preparation kit according to manufacturer's instructions (#T1010, New England Biolabs). GST-constructs were transformed in to BL21-Gold E. coli cells (#230134, Agilent), and GST-fusion proteins were produced, extracted, and bound to GST beads as described in Example 1. Beads were washed three times with STE buffer and stored at 4 °C.
GST pull-down experiments for compounds screening against FLAG PTP1B interaction with SH3-2 domain of NCK1. GST-bound agarose beads of SH3-2 domain were incubated overnight at 4 °C with lysates from HEK293 cells overexpressing FLAG PTP1B protein, to gether with various peptide compounds (1 mM) to screen for inhibition of PTP1B-NCK1 binding. Following overnight incubation, agarose beads were three times washed in STE buffer, and proteins were eluted in SDS-Laemmli buffer by heating at 95 °C for 10 min. Samples were spun at 12,000 rpm for 2 min, and the liquid fraction was transferred in to 1 mL Eppendorf tubes. Proteins were separated and detected by chemiluminescent Western Blotting (PEQLAB, Germany) using anti-FLAG HRP antibody (#A8592, Sigma).

[2] = tested on: ATF4; assay: ATF4 gene expression in liver of LDLR−/− mice (qPCR); format: in vivo, mouse; conditions: 30 mg/kg IP daily, vs control
Method: (§1) FIGS. 30A-30E are graphs showing expression of various genes in tissues of HFD-fed LDLR−/− mice following 6 weeks of daily IP administration of MD20 (30 mg/kg) or a vehicle control. Mice were fasted for 5 hours at the conclusion of the experiment, liver and white adipose tissue (“WAT”) samples were collected, and gene expression was measured by qRT-PCR. Expression of glucose transporter 4 (GLUT4; FIG. 30A) and stearoyl-CoA-desaturase 1 (SCD1; FIG. 30B) was measured in adipose tissue, and expression of Glucose-6-phosphatase (G6P; FIG. 30C), Activating Transcription Factor 4 (ATF4; FIG. 30D), and 3-hydroxy-3-methylglutaryl (HMGCS; FIG. 30E) was measured in liver tissue. Data represent mean±SEM; statistical differences were determined using two tailed student's t-test.
(§2) Gene expression analyses: Livers and adipose tissue were collected from 5 h-fasted animals and snap-frozen in liquid nitrogen. RNA was isolated from frozen liver tissue using TRIzole (Sigma, UK) and cDNA was synthesized from 1 μg RNA using bioscript cDNA synthesis kit (Bioline, UK), oligo (dT) 18 (SEQ ID NO: 170), and random hexamer primers.
(§3) Genes of interest were amplified by quantitative PCR (qPCR) using gene-specific primers and GoTaq qPCR master mix (Promega, Madison, WI, USA).

[3] = tested on: SCD1; assay: SCD1 gene expression in adipose tissue of LDLR−/− mice (qPCR); format: in vivo, mouse; conditions: 30 mg/kg IP daily, vs control
Method: as §1, §2, §3

Substance | binding to full-length NCK1 (concluded from pull-down) [1] | disruption of the interaction between PTP1B and the SH3-2 domain of NCK1 [1] | ATF4 expression in liver [2] | SCD1 expression in adipose tissue [3]
Ac-PRPPKR-NH2 [MD20, Ac-PRPPKR-NH2] | bind to full-length NCK1, specifically, at SH3-2 domain | disrupt the interaction between PTP1B and the SH3-2 domain of NCK1 | decreased | increased
Ac-PPPEHIPPPPRPPKR-NH2 [MD17] | bind to full-length NCK1, specifically, at SH3-2 domain | disrupt the interaction between PTP1B and the SH3-2 domain of NCK1 | – | –
